Values quoted from earlier work in EP4732833A1, “ROPIVACAINE MICROSPHERE AND PREPARATION METHOD THEREFOR” (Bostal Drug Delivery Co., Ltd., priority 2023, dated 2025).

Details: background statement

plasma half-life: 1.8 h
Compound: CCCN1CCCC[C@H]1C(=O)Nc1c(C)cccc1C [Ropivacaine, (S)-N-(2,6-dimethylphenyl)-1-propylpiperidine-2-carboxamide]
